Test results as given in paper PMC3180442 (PLoS ONE, 2011).

Legend:
[1] = biological target: T1, RipA (Yersinia pestis, UniProt Q9ZC36); details: 10 mM acid vs 10 mM acetate, butyryl-CoA as CoA donor, 100 mM Tris pH 7.0, room temperature; competing acceptor acid
[2] = biological target: T1, RipA; details: 5 µM RipA, 20 µM ligand, 100 mM potassium phosphate pH 7.4; Tm with ligand, apo RipA 45.8 °C
[3] = biological target: T1, RipA; details: active site near Glu249; crystals grown with succinyl-CoA and tacsimate pH 5.0; acetate is the CoA acceptor in the activity assay
[4] = biological target: Yersinia pestis RipA (Yersinia pestis); experiment: crystal structure
[5] = biological target: Yersinia pestis RipA (Yersinia pestis); experiment: SEC
[6] = biological target: Yersinia pestis RipA (Yersinia pestis); experiment: SAXS

For `O=C(O)CCCO` [4-hydroxybutyrate], the “% decrease in the rate of acetyl-CoA formation” value (shortened to “% decrease in the rate”) [1] was 10%.

In the case of `CC(=O)CC(=O)SCCNC(=O)CCNC(=O)[C@H](O)C(C)(C)COP(=O)(O)OP(=O)(O)OC[C@H]1O[C@@H](n2cnc3c(N)ncnc32)[C@H](O)[C@@H]1OP(=O)(O)O` [Aceto-acetyl-CoA], the “Tm (°C)” value [2] is reported as 48.3±0.01 °C.

`CC(=O)SCCNC(=O)CCNC(=O)[C@H](O)C(C)(C)COP(=O)(O)OP(=O)(O)OC[C@H]1O[C@@H](n2cnc3c(N)ncnc32)[C@H](O)[C@@H]1OP(=O)(O)O` [Acetyl-CoA] was tested, and the “Tm (°C)” value [2] was 52.8±0.03 °C.

In the case of `CCCC(=O)SCCNC(=O)CCNC(=O)[C@H](O)C(C)(C)COP(=O)(O)OP(=O)(O)OC[C@H]1O[C@@H](n2cnc3c(N)ncnc32)[C@H](O)[C@@H]1OP(=O)(O)O` [Butyryl-CoA], the “Tm (°C)” value [2] is reported as 53.4±0.05 °C.

`C/C=C/C(=O)SCCNC(=O)CCNC(=O)[C@H](O)C(C)(C)COP(=O)(O)OP(=O)(O)OC[C@H]1O[C@@H](n2cnc3c(N)ncnc32)[C@H](O)[C@@H]1OP(=O)(O)O` [Crotonyl-CoA] was tested, and the “Tm (°C)” value [2] was 47.9±0.54 °C.

In the case of `CCC(=O)SCCNC(=O)CCNC(=O)[C@H](O)C(C)(C)COP(=O)(O)OP(=O)(O)OC[C@H]1O[C@@H](n2cnc3c(N)ncnc32)[C@H](O)[C@@H]1OP(=O)(O)O` [Propionyl-CoA], the “Tm (°C)” value [2] is reported as 53.5±0.06 °C.

For `CC(C)(COP(=O)(O)OP(=O)(O)OC[C@H]1O[C@@H](n2cnc3c(N)ncnc32)[C@H](O)[C@@H]1OP(=O)(O)O)[C@@H](O)C(=O)NCCC(=O)NCCSC(=O)CCC(=O)O` [Succinyl-CoA], the “Tm (°C)” value [2] was 52.8±0.28 °C.

`CC(=O)O` [acetate] was tested, and the “X-ray crystal structure, 1.9 Å” value [3] was “electron density near the active site glutamate suggests an acetate molecule is located within”.

In the case of `CCCC(=O)O` [butyrate], the “% decrease in the rate” value [1] is reported as 80%.

With `CCC(=O)O` [propionate] the “% decrease in the rate” value [1] was 80%.

Yersinia pestis RipA (enzyme) showed a stoichiometry N [4] of 4, a stoichiometry N [5] of 4 and a stoichiometry N [6] of 4.
